The results in this text go back to ChEMBL document CHEMBL3994641, “Design, synthesis, and cytotoxicity of stabilized mycolactone analogs” (Bioorg Med Chem Lett, 2017).

Data set [1] can be described thus: Stability of the compound in 0.1 M HCl in MeOH at 0.5 mg after 2 hrs by 1H-NMR spectroscopy. Type of data set: physicochemical.
A short description of data set [2]: Drug metabolism assessed as initial E/Zdouble-bond isomerization followed by photocyclization in acetone irradiated with UV light at 1 mg after 2 to 72 hrs by 1H-NMR spectroscopy. In kind it is physicochemical.
The nature of data set [3]: Stability of the compound in 0.1 M HCl in MeOH at 0.5 mg after 8 hrs by 1H-NMR spectroscopy. Type of data set: physicochemical.
A short description of data set [4]: Stability of the compound in 0.1 M NaOH in MeOH at 0.5 mg after 2 hrs by 1H-NMR spectroscopy. In kind it is physicochemical.
The nature of data set [5]: Thermal stability of the compound in acetone under sunlight at 60 degreeC after 1 day. In kind it is physicochemical. The conditions noted are these: 24 h.
Data set [6] in a line: Thermal stability of the compound in acetone under sunlight at 60 degreeC after 10 days. In kind it is physicochemical. Conditions: 240 h.
Data set [7] has as its system HEK293. Briefly: Cytotoxicity against human HEK293 cells after 72 hrs by CellTiter blue staining based microscopic method. Conditions: HEK293, 72 h. Type of data set: cell-based. For orientation: Resazurin is reduced to fluorescent resorufin, in cell work by metabolically active cells.
Data set [8] has as its system A549. The data set can be described thus: Cytotoxicity against human A549 cells after 72 hrs by CellTiter blue staining based microscopic method. Type of data set: functional, cell-based. Conditions: A549, 72 h.
The test system of data set [9] is LOX IMVI. Briefly: Cytotoxicity against human LOXIMVI cells after 72 hrs by CellTiter blue staining based microscopic method. In kind it is functional, cell-based.
Data set [10] relates to L929. The data set can be described thus: Cytotoxicity against mouse L929 cells after 72 hrs by CellTiter blue staining based microscopic method. In kind it is cell-based. The conditions noted are these: L929, 72 h.
The nature of data set [11]: Stability of the compound in acetone irradiated with UV light at 1 mg after 2 to 72 hrs by 1H-NMR spectroscopy. Type of data set: physicochemical.
Data set [12] in a line: Stability of the compound in 0.1 M NaOH in MeOH at 0.5 mg after 14 hrs by 1H-NMR spectroscopy. In kind it is physicochemical.
Data set [13] in a line: Stability of the compound in 1 N HCl in water/0.1% Triton-X-100. In kind it is physicochemical. Conditions: buffer.
Data set [14] in a line: Stability of the compound in 1 N NaOH in water/0.1% Triton-X-100. In kind it is physicochemical. Conditions: buffer.
Data set [15] in a line: Drug metabolism assessed as compound decomposition in 0.1 M HCl in MeOH at 0.5 mg after 8 hrs by 1H-NMR spectroscopy. Type of data set: physicochemical. The conditions noted are these: read-out: Drug metabolism.
A short description of data set [16]: Drug metabolism assessed as compound decomposition in 0.1 M NaOH in MeOH at 0.5 mg after 14 hrs by 1H-NMR spectroscopy. In kind it is physicochemical. The conditions noted are these: read-out: Drug metabolism.
A short description of data set [17]: Stability of the compound in DMSO/EtOH at -20 degreeC assessed as decomposition up to 1 month. In kind it is physicochemical.
Data set [18] can be described thus: Drug metabolism assessed as compound decomposition in neat at room temperature up to 10 days. Type of data set: physicochemical. The conditions noted are these: read-out: Drug metabolism.
Data set [19] in a line: Drug metabolism assessed as compound decomposition in DMSO/EtOH at -20 degreeC after 3 years. Conditions: read-out: Drug metabolism. In kind it is physicochemical.
Data set [20] can be described thus: Solubility of the compound in water. Conditions: buffer. In kind it is physicochemical.
A short description of data set [21]: Solubility of the compound in water/0.1% Triton-X-100/NP-40. Type of data set: physicochemical. Conditions: buffer.
The nature of data set [22]: Drug metabolism assessed as E/Z double-bond isomerization by measuring delta4',5'-Z and delta4',5'-E isomers in acetone under sunlight at 60 degreeC after 1 day. In kind it is physicochemical. Conditions: 24 h.
Data set [23] can be described thus: Drug metabolism assessed as E/Z double-bond isomerization by measuring delta4',5'-Z and delta4',5'-E isomers in acetone under sunlight at 60 degreeC after 10 days. In kind it is physicochemical. Conditions: 240 h.

Broadly, the IC50 is the concentration at which inhibition is half-maximal. On to `CC(/C=C/C(=O)O[C@H]1CCCC(=O)O[C@@H]([C@@H](C)C/C(C)=C/[C@@H](C)[C@H](O)C[C@@H](C)O)C/C=C(\C)C[C@@H]1C)=C\[C@@H](C)C/C=C/C(C)=C/[C@H](O)[C@@H](O)C[C@H](C)O`, for which the Stability entry in [1], in data set [3], in [4], in [5], in [6] and in data set [11] was “Stable” in each case. For the same molecule, the Stability entry in data set [12], in data set [13] and in data set [14] was “Stable” each time. For the same molecule, the Drug metabolism result in [2] is listed as “Metabolite_Notdetected”. For the same molecule, the IC50 worked out at 0.003 µM in [7], 0.077 µM in data set [8], 0.029 µM in [9] and 0.053 µM in data set [10].

As for `CC(/C=C/C(=O)O[C@H]1CCCC(=O)O[C@@H]([C@@H](C)C/C(C)=C/[C@@H](C)[C@H](O)C[C@@H](C)O)C/C=C(\C)C[C@@H]1C)=C\[C@H](C)C/C=C/C(C)=C/[C@H](O)[C@@H](O)C[C@H](C)O`, the Stability entry in data set [1], in [3], in data set [4], in [5], in data set [6] and in [11] was “Stable” each time. The Stability result in data set [12], in [13] and in data set [14] was “Stable” in each case. The Drug metabolism entry in data set [2] was “Metabolite_Notdetected”. For the same molecule, the IC50 in data set [7] is 0.083 µM; in data set [8] it was 0.4 µM; in data set [9] it was 0.12 µM; in data set [10], 0.063 µM.

For `CC(=CC(/C)=C/C=C/C(C)=C/[C@H](O)[C@@H](O)C[C@H](C)O)/C=C/C(=O)O[C@H]1CCCC(=O)O[C@@H]([C@@H](C)C/C(C)=C/[C@@H](C)[C@H](O)C[C@@H](C)O)C/C=C(\C)C[C@@H]1C` (mixture of isomers), the Stability entry in [1], in [4], in data set [5], in data set [6], in data set [17] and in [13] was “Stable” throughout. Moreover, the Stability result in data set [14] is reported as “Stable”. The Drug metabolism entry in [2], in data set [22] and in data set [23] was “Metabolite_Detected” each time. Further, the degraded at 8 h in data set [15] stood at 80%. For the same molecule, the degraded at 14 h in data set [16] came to 90%. The IC50 in data set [7] stood at 0.0032 µM; in [8] it was 0.00077 µM; in data set [9], 0.0069 µM; in data set [10], 0.013 µM. Moreover, the degraded at 240 h in [18] was 20 to 30%. The degraded at 26298 h in [19] worked out at 20%. The solubility result is on record as “Insoluble” in data set [20] and “Soluble” in data set [21].
